Data on twelve compounds can be found in ChEMBL document CHEMBL1201862, “PubChem BioAssay data set” (2004).

Among the test systems are RPMI-8226; CAKI-1; HT-29; Hs-578T; U-251; MDA-MB-231; SK-MEL-5; HL-60; OVCAR-3; EKVX; Malme-3M; OVCAR-4; 786-0; M14; UACC-257; HCC 2998; SNB-75.
Common to all, as to experiment: NCI-60 cell line screen, 48 h

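In this assay, cells in 96-well plates receive the compound at five concentrations for 48 hours. Endpoints are linearly interpolated between the surrounding concentrations. Abbreviation: GI50, concentration required for 50% inhibition of growth.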 The source made the active and inactive calls. Cut-off read from the data, not from the text of the source: active = GI50 up to about 1.1 µM and inactive = higher.

With `COC(=O)C1=C(OC(=O)/C(=C/c2ccccc2)c2ccc(Cl)cc2)C(C(=O)OC)[C@@]2(O)[C@@H](C(=O)OC)[C@H](C)C[C@@H]1[C@@H]2C(=O)OC` (some centres undefined), the GI50 in the test on RPMI-8226, in the test on CAKI-1, in the test with HT-29, with Hs-578T, in the test with U-251 and with MDA-MB-231 was > 100 µM (inactive) in each case. For the same compound, the GI50 in the test on SK-MEL-5, in the test on HL-60, with OVCAR-3, with EKVX, with Malme-3M and in the test with OVCAR-4 was > 100 µM (inactive) each time. The GI50 in the test with 786-0, with M14, in the test on UACC-257, with HCC 2998 and in the test on SNB-75 was > 100 µM (inactive) in each case.

As to `O=C(/C=C/c1cccs1)c1cccc(C(=O)/C=C/c2cccs2)n1`, the GI50 with RPMI-8226 was 2.97 µM (inactive); in the test with CAKI-1, 61.4 µM (inactive); with HT-29, 6.21 µM (inactive); with Hs-578T it was 23.8 µM (inactive); in the test on U-251 it was 9.1 µM (inactive); with MDA-MB-231 it was 63.2 µM (inactive). Besides, the GI50 with SK-MEL-5 was > 100 µM (inactive); with HL-60, 7.41 µM (inactive); with OVCAR-3 it was 42.2 µM (inactive); in the test with EKVX, > 100 µM (inactive); in the test on Malme-3M, > 100 µM (inactive); in the test with OVCAR-4 it was > 100 µM (inactive). Also, the GI50 is 6.81 µM (inactive) in the test with 786-0; > 91.2 µM (inactive) in the test on M14; > 100 µM (inactive) in the test on UACC-257; > 100 µM (inactive) with HCC 2998; 65.9 µM (inactive) in the test on SNB-75.

For the compound `COc1cc(C(=O)OC2CC(C)=CC[C@@]3(C)CC[C@](O)(C(C)C)C23)ccc1O` (some centres undefined), the GI50 with RPMI-8226 is 25.6 µM (inactive); with CAKI-1, 16.3 µM (inactive); in the test on HT-29, 15.9 µM (inactive); in the test with Hs-578T, 17.3 µM (inactive); in the test on U-251, 31.3 µM (inactive); in the test on MDA-MB-231, 15 µM (inactive). Also, the GI50 with SK-MEL-5 was 17.5 µM (inactive); in the test on HL-60, 31.6 µM (inactive); with OVCAR-3, 18.5 µM (inactive); with EKVX, 18.9 µM (inactive); in the test with Malme-3M, 18.6 µM (inactive); with OVCAR-4, 15.9 µM (inactive). Further, the GI50 was 17.3 µM (inactive) in the test on 786-0; 17 µM (inactive) with M14; 15.5 µM (inactive) with UACC-257; 14.5 µM (inactive) with HCC 2998; 18.7 µM (inactive) in the test with SNB-75.

Turning to `N#Cc1cc2c(cc1C#N)SCCSCCCSCCS2`, the GI50 was > 100 µM (inactive) in the test on RPMI-8226; 22.8 µM (inactive) in the test on CAKI-1; > 100 µM (inactive) with HT-29; 3.96 µM (inactive) with Hs-578T; 5.32 µM (inactive) with U-251; 10 µM (inactive) in the test on MDA-MB-231. The GI50 in the test with SK-MEL-5 is > 100 µM (inactive); in the test on HL-60, > 10 µM (inactive); in the test with OVCAR-3, 25.2 µM (inactive); with EKVX, > 48.9 µM (inactive); in the test with Malme-3M, 20.1 µM (inactive); in the test with OVCAR-4, 8.93 µM (inactive). For the same compound, the GI50 is 5.09 µM (inactive) in the test with 786-0; 38.3 µM (inactive) with M14; > 87.9 µM (inactive) with UACC-257; > 72.4 µM (inactive) in the test with HCC 2998; 4.61 µM (inactive) in the test with SNB-75.

As for `CO[C@]1(c2ccc([N+](=O)[O-])cc2)Oc2ccccc2C(=O)[C@@]1(Nc1ccc(C=O)cc1)OC`, the GI50 in the test on RPMI-8226, with CAKI-1, in the test on HT-29, in the test with Hs-578T, in the test with U-251 and with MDA-MB-231 was > 10 µM (inactive) in each case. The GI50 in the test on SK-MEL-5, in the test on HL-60, in the test on OVCAR-3, with EKVX, in the test on Malme-3M and in the test with OVCAR-4 was > 10 µM (inactive) in each case. Also, the GI50 in the test on 786-0, with M14, with UACC-257, in the test on HCC 2998 and in the test on SNB-75 was > 10 µM (inactive) throughout.

For `COc1cccc(N2N=C3c4ccccc4-n4c(nc5ccccc54)C3C2N)c1` (centres undefined), the GI50 was > 100 µM (inactive) in the test with RPMI-8226; > 100 µM (inactive) in the test on CAKI-1; > 100 µM (inactive) with HT-29; > 100 µM (inactive) with Hs-578T; > 100 µM (inactive) in the test with U-251; 92.3 µM (inactive) in the test on MDA-MB-231. Further, the GI50 in the test on SK-MEL-5 is 20.7 µM (inactive); in the test on HL-60 it was > 100 µM (inactive); with OVCAR-3 it was > 100 µM (inactive); in the test on EKVX, > 100 µM (inactive); in the test with Malme-3M, 66.1 µM (inactive); in the test on OVCAR-4 it was > 100 µM (inactive). The GI50 in the test on 786-0 is > 100 µM (inactive); with M14, 34.1 µM (inactive); in the test with UACC-257, > 100 µM (inactive); with HCC 2998 it was > 100 µM (inactive); with SNB-75 it was > 100 µM (inactive).

Consider `CCC(CS(=O)(=O)O)[N+](=O)[O-]` (centres undefined), for which the GI50 in the test with RPMI-8226, in the test on CAKI-1, in the test with HT-29, with Hs-578T, in the test on U-251 and in the test on MDA-MB-231 was > 100 µM (inactive) in each case. The GI50 in the test with SK-MEL-5, in the test with HL-60, in the test with OVCAR-3, in the test with EKVX, with Malme-3M and in the test on OVCAR-4 was > 100 µM (inactive) in each case. In addition, the GI50 in the test with 786-0, in the test with M14, in the test on UACC-257, in the test with HCC 2998 and in the test with SNB-75 was > 100 µM (inactive) each time.

On to `CCCCCC[C@H]([C@H](C)O)n1cnc2c(N)ncnc21`, for which the GI50 in the test on RPMI-8226, in the test on CAKI-1, with HT-29, in the test on Hs-578T, with U-251 and with MDA-MB-231 was > 100 µM (inactive) in each case. Further, the GI50 in the test with SK-MEL-5 is > 100 µM (inactive); in the test on HL-60 it was 50.9 µM (inactive); with OVCAR-3, > 100 µM (inactive); with EKVX, > 100 µM (inactive); with Malme-3M, > 100 µM (inactive); in the test on OVCAR-4, > 100 µM (inactive). Further, the GI50 in the test with 786-0 is > 100 µM (inactive); in the test on M14, > 100 µM (inactive); in the test on UACC-257, > 100 µM (inactive); in the test with HCC 2998, > 100 µM (inactive); with SNB-75, 62.7 µM (inactive).

As to `CCOP(=O)(OCC)/C(C#N)=C/c1ncc[nH]1`, the GI50 in the test on RPMI-8226, with CAKI-1, in the test with HT-29, with Hs-578T, in the test with U-251 and with MDA-MB-231 was > 100 µM (inactive) in each case. Moreover, the GI50 with SK-MEL-5, in the test on HL-60, in the test with OVCAR-3, in the test on EKVX, in the test with Malme-3M and with OVCAR-4 was > 100 µM (inactive) in each case. For the same compound, the GI50 in the test on 786-0, in the test with M14, in the test with UACC-257, in the test with HCC 2998 and with SNB-75 was > 100 µM (inactive) each time.

Consider `CC1(C)CCC[C@@]2(C)C1CC[C@@]1(CO)O[C@H](C3=CC(=O)OC3O)C[C@H]12` (some centres undefined), for which the GI50 in the test on RPMI-8226 is 3.87 µM (inactive); with CAKI-1, 15 µM (inactive); in the test with HT-29, 13 µM (inactive); in the test on Hs-578T, 14.7 µM (inactive); with U-251, 15.1 µM (inactive); with MDA-MB-231 it was 18.8 µM (inactive). Further, the GI50 in the test on SK-MEL-5 is 5.38 µM (inactive); in the test with HL-60, 1.66 µM (inactive); in the test with OVCAR-3, 14.9 µM (inactive); in the test on EKVX, 22.9 µM (inactive); with Malme-3M, 11 µM (inactive); in the test on OVCAR-4, 14.5 µM (inactive). The GI50 was 15 µM (inactive) in the test on 786-0; 11.8 µM (inactive) in the test on M14; 14.9 µM (inactive) in the test with UACC-257; 17.4 µM (inactive) in the test with HCC 2998; 15.3 µM (inactive) with SNB-75.

On to `COc1cc(Br)c(CC2C3=C(CCN2C(=O)C2CCC2)CC2(CC3)OCCO2)cc1O` (centres undefined), for which the GI50 is 36.6 µM (inactive) in the test on RPMI-8226; 68.4 µM (inactive) with CAKI-1; 24.2 µM (inactive) with HT-29; 33.8 µM (inactive) in the test on Hs-578T; > 100 µM (inactive) in the test on U-251; 87.1 µM (inactive) with MDA-MB-231. In addition, the GI50 in the test on SK-MEL-5 is 35.3 µM (inactive); in the test with HL-60, 46.7 µM (inactive); in the test on OVCAR-3, 33.5 µM (inactive); in the test with EKVX, 34.2 µM (inactive); in the test on Malme-3M, 65 µM (inactive); with OVCAR-4 it was 34.4 µM (inactive). The GI50 in the test on 786-0 was 89.9 µM (inactive); in the test on M14, 62.5 µM (inactive); with UACC-257 it was 32.5 µM (inactive); in the test on HCC 2998, 28.8 µM (inactive); in the test on SNB-75, 17.2 µM (inactive).

In the case of `NCCCNCCCCN1CC1`, the GI50 is 7.01 µM (inactive) in the test on RPMI-8226; 0.0486 µM (active) with CAKI-1; 7.05 µM (inactive) in the test on HT-29; 1.08 µM (active) in the test on Hs-578T; 2.84 µM (inactive) in the test on U-251; 1.4 µM (inactive) with MDA-MB-231. The GI50 in the test with SK-MEL-5 is 2.25 µM (inactive); with HL-60 it was 0.601 µM (active); in the test on OVCAR-3 it was 1.6 µM (inactive); with EKVX, 4.61 µM (inactive); in the test on Malme-3M, 4.57 µM (inactive); in the test on OVCAR-4, 0.259 µM (active). Besides, the GI50 in the test with 786-0 is 0.713 µM (active); in the test with M14 it was 11.4 µM (inactive); in the test with UACC-257, 1.39 µM (inactive); in the test with HCC 2998 it was 7.06 µM (inactive); in the test on SNB-75 it was 0.372 µM (active).
